According to patent publication US20130096119A1, “Isoquinolin-3-Ylurea Derivatives” (priority 2010, published 2013):
In brackets after ≈: the same amount, converted by molar mass.

What follows are molecules tested on S. pneumoniae ATCC 49619 (assay: Minimal inhibitory concentration (MIC) by microdilution method (CLSI M7-A7)). Conditions: Streptococcus pneumoniae, ATCC49619, cation-adjusted Mueller-Hinton Broth supplemented with 3% (v/v) lysed horse blood.
Format: cell-based, Streptococcus pneumoniae
Summary of the method: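 For S. pneumoniae, cation-adjusted Mueller-Hinton broth carried 3% (v/v) lysed horse blood; MICs (mg/l) were read by CLSI M7-A7 microdilution.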
In the case of `CCNC(=O)Nc1cc2c(-c3ccc(CO)cc3)ccc(C)c2cn1` [Example 34, 1-ethyl-3-[5-(4-hydroxymethyl-phenyl)-8-methyl-isoquinolin-3-yl]-urea], the MIC is reported as 2 mg/L (≈ 5.96 µM).
Molecule `CCNC(=O)Nc1cc2cccc(Nc3ccc(NC(C)=O)nc3)c2cn1.Cl` [Example 161, N-{5-[3-(3-ethyl-ureido)-isoquinolin-8-ylamino]-pyridin-2-yl}-acetamide hydrochloride] has an MIC of 2 mg/L.
Molecule `CCNC(=O)Nc1cc2c(-c3cccnn3)ccc(C)c2cn1.Cl` [Example 282, 1-ethyl-3-(8-methyl-5-pyridazin-3-yl-isoquinolin-3-yl)-urea hydrochloride] has an MIC of 8 mg/L.
Work on `CCNC(=O)Nc1cc2cccc(Nc3nnc(C)o3)c2cn1` [Example 154, 1-ethyl-3-[8-(5-methyl-[1,3,4]oxadiazol-2-ylamino)-isoquinolin-3-yl]-urea] yielded an MIC of 8 mg/L (≈ 25.6 µM).
In the case of `CCNC(=O)Nc1cc2c(CNC)ccc(C)c2cn1` [Example 269, 1-ethyl-3-(8-methyl-5-methylaminomethyl-isoquinolin-3-yl)-urea], the MIC is reported as 8 mg/L (≈ 29.4 µM).
`CCNC(=O)Nc1cc2cc(-c3ccccc3C(=O)N(C)C)cc(C)c2cn1` [Example 23, 2-[3-(3-ethyl-ureido)-8-methyl-isoquinolin-6-yl]-N,N-dimethyl-benzamide] gave an MIC of 8 mg/L (≈ 21.3 µM).
With `CCNC(=O)Nc1cc2c(F)ccc(NCc3cccnc3)c2cn1` [Example 55, 1-ethyl-3-{5-fluoro-8-[(pyridin-3-ylmethyl)-amino]-isoquinolin-3-yl}-urea] the MIC was 8 mg/L (≈ 23.6 µM).
`CCNC(=O)Nc1cc2cccc(Nc3cccc(NC(C)=O)c3)c2cn1` [Example 172, N-{3-[3-(3-ethyl-ureido)-isoquinolin-8-ylamino]-phenyl}-acetamide] gave an MIC of 2 mg/L (≈ 5.5 µM).
`CCNC(=O)Nc1cc2cccc(Nc3ncccc3C)c2cn1.Cl` [Example 167, 1-ethyl-3-[8-(3-methyl-pyridin-2-ylamino)-isoquinolin-3-yl]-urea hydrochloride] gave an MIC of 8 mg/L.
`CCNC(=O)Nc1cc2c(F)c(-c3cncc(C)c3)cc(C)c2cn1` [Example 141, 1-ethyl-3-[5-fluoro-8-methyl-6-(5-methylpyridin-3-yl)isoquinolin-3-yl]-urea] gave an MIC of 0.5 mg/L (≈ 1.48 µM).
`CCNC(=O)Nc1cc2cccc(Nc3ccc(C(=O)O)c(C)c3)c2cn1` [Example 267, 4-[3-(3-ethyl-ureido)-isoquinolin-8-ylamino]-2-methyl-benzoic acid] showed an MIC of 2 mg/L (≈ 5.49 µM).
For `CCNC(=O)Nc1cc2cccc(Nc3cccc(OC)n3)c2cn1` [Example 178, 1-ethyl-3-[8-(6-methoxy-pyridin-2-ylamino)-isoquinolin-3-yl]-urea], the MIC was 2 mg/L (≈ 5.93 µM).
`CCNC(=O)Nc1cc2cccc(Cn3cccn3)c2cn1` [Example 295, 1-ethyl-3-(8-pyrazol-1-ylmethyl-isoquinolin-3-yl)-urea] showed an MIC of 8 mg/L (≈ 27.1 µM).
In the case of `CCNC(=O)Nc1cc2cc(-c3cncc(SC)c3)cc(C)c2cn1` [Example 96, 1-ethyl-3-[8-methyl-6-(5-methylsulfanyl-pyridin-3-yl)-isoquinolin-3-yl]-urea], the MIC is reported as 2 mg/L (≈ 5.67 µM).
`CCNC(=O)Nc1cc2cc(NCc3ccc4c(c3)OCCN4C)cc(C)c2cn1.Cl` [Example 130, 1-ethyl-3-{8-methyl-6-[(4-methyl-3,4-dihydro-2H-benzo[1,4]oxazin-7-ylmethyl)-amino]isoquinolin-3-yl}-urea hydrochloride] showed an MIC of 8 mg/L.
In the case of `CCNC(=O)Nc1cc2c(-c3cccc4[nH]ccc34)ccc(C)c2cn1` [Example 69, 1-ethyl-3-[5-(1H-indol-4-yl)-8-methyl-isoquinolin-3-yl]-urea], the MIC is reported as 16 mg/L (≈ 46.5 µM).
`CCNC(=O)Nc1cc2cc(NC(=O)c3ccc(S(C)(=O)=O)cc3)cc(C)c2cn1` [Example 117, N-[3-(3-ethyl-ureido)-8-methyl-isoquinolin-6-yl]-4-methanesulfonyl-benzamide] showed an MIC of 0.25 mg/L (≈ 0.586 µM).
With `CCNC(=O)Nc1cc2c(CN(C)C)ccc(Nc3cccc(OC)n3)c2cn1` [Example 273, 1-{5-[(dimethylamino)methyl]-8-[(6-methoxy-pyridin-2-yl)amino]-isoquinolin-3-yl}-3-ethyl-urea] the MIC was 4 mg/L (≈ 10.1 µM).
`CCNC(=O)Nc1cc2c(-c3cnn(C)c3)ccc(C)c2cn1.Cl` [Example 284, 1-ethyl-3-[8-methyl-5-(1-methyl-1H-pyrazol-4-yl)-isoquinolin-3-yl]-urea hydrochloride] gave an MIC of 4 mg/L.
For `CCNC(=O)Nc1cc2cccc(Nc3cncc(F)c3)c2cn1.Cl` [Example 159, 1-ethyl-3-[8-(5-fluoro-pyridin-3-ylamino)-isoquinolin-3-yl]-urea hydrochloride], the MIC was 2 mg/L.
`CCNC(=O)Nc1cc2cccc(Nc3ccn4ccnc4c3)c2cn1` [Example 150, 1-ethyl-3-[8-(imidazo[1,2-a]pyridin-7-ylamino)-isoquinolin-3-yl]-urea] showed an MIC of 4 mg/L (≈ 11.5 µM).
In the case of `CCNC(=O)Nc1cc2c(-c3ccnc(N)c3)ccc(C)c2cn1` [Example 45, 1-[5-(2-amino-pyridin-4-yl)-8-methyl-isoquinolin-3-yl]-3-ethyl-urea], the MIC is reported as 2 mg/L (≈ 6.22 µM).
With `CCNC(=O)Nc1cc2c(N3CCN(C)CC3)ccc(Nc3cccnc3)c2cn1` [Example 277, 1-ethyl-3-[5-(4-methyl-piperazin-1-yl)-8-(pyridin-3-ylamino)-isoquinolin-3-yl]-urea] the MIC was 2 mg/L (≈ 4.93 µM).
In the case of `CCNC(=O)Nc1cc2cccc(Nc3ccc(CC(=O)O)cc3)c2cn1` [Example 205, {4-[3-(3-ethyl-ureido)-isoquinolin-8-ylamino]phenyl}-acetic acid], the MIC is reported as 4 mg/L (≈ 11 µM).
`CCNC(=O)Nc1cc2c(F)ccc(C)c2cn1` [Example 60, 1-ethyl-3-(5-fluoro-8-methyl-isoquinolin-3-yl)-urea] gave an MIC of 4 mg/L (≈ 16.2 µM).
Molecule `CCNC(=O)Nc1cc2cccc(COc3cccnc3C)c2cn1.Cl` [Example 259, 1-ethyl-3-[8-(2-methyl-pyridin-3-yloxymethyl)-isoquinolin-3-yl]-urea hydrochloride] has an MIC of 4 mg/L.
For `CCNC(=O)Nc1cc2cccc(Nc3ccc(C)nc3)c2cn1.Cl` [Example 164, 1-ethyl-3-[8-(6-methyl-pyridin-3-ylamino)-isoquinolin-3-yl]-urea hydrochloride], the MIC was 2 mg/L.
Molecule `CCNC(=O)Nc1cc2c(F)c(NCc3ccccc3)cc(Cl)c2cn1` [Example 49, 1-(6-benzylamino-8-chloro-5-fluoro-isoquinolin-3-yl)-3-ethyl-urea] has an MIC of 2 mg/L (≈ 5.36 µM).
With `CCNC(=O)Nc1cc2cccc(COc3ccc(C)nc3)c2cn1.Cl` [Example 256, 1-ethyl-3-[8-(6-methyl-pyridin-3-yloxymethyl)-isoquinolin-3-yl]-urea hydrochloride] the MIC was 8 mg/L.
In the case of `CCNC(=O)Nc1cc2cc(-c3cncnc3C(C)C)cc(C)c2cn1` [Example 95, 1-ethyl-3-[6-(4-isopropyl-pyrimidin-5-yl)-8-methyl-isoquinolin-3-yl]-urea], the MIC is reported as 16 mg/L (≈ 45.8 µM).
`CCNC(=O)Nc1cc2cc(-c3cnc4ccccc4c3)cc(C)c2cn1` [Example 36, 1-ethyl-3-(8-methyl-6-quinolin-3-yl-isoquinolin-3-yl)-urea] showed an MIC of 0.125 mg/L (≈ 0.351 µM).
`CCNC(=O)Nc1cc2c(-c3ccc(CO)cc3)ccc(Oc3cccnc3)c2cn1` [Example 221, 1-ethyl-3-[5-(4-hydroxymethyl-phenyl)-8-(pyridin-3-yloxy)-isoquinolin-3-yl]-urea] showed an MIC of 0.5 mg/L (≈ 1.21 µM).

Same assay, conditions: cation-adjusted Mueller-Hinton Broth supplemented with 3% (v/v) lysed horse blood
In the case of `CCNC(=O)Nc1cc2c(CNC)ccc(Nc3cccc(OC)n3)c2cn1` [Example 271, 1-ethyl-3-{8-[(6-methoxy-pyridin)-2-ylamino]-5-[(methylamino)methyl]-isoquinolin-3-yl}-urea], the “MIC for S. pneumoniae ATCC 49619” value is reported as 4 mg/L.
With “1-[8-(2,4-dimethyl-imidazol-1-ylmethyl)-isoquinolin-3-yl]-3-ethyl-urea and 1-[8-(2,5-dimethyl-imidazol-1-ylmethyl)-isoquinolin-3-yl]-3-ethyl-urea [Example 296]” the “MIC for S. pneumoniae ATCC 49619” value was 8 mg/L.
